Source: PubChem BioAssay (NCI)
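Tested at 5 concentrations; 48 h exposure; 96-well plates; endpoints linearly interpolated, else capped at highest concentration. TGI: concentration producing complete growth inhibition.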

What was measured:
Assay in all cases: NCI-60 cell line screen, 48 h
U251 CNS = test system: U251 CNS
OVCAR-5 ovarian = test system: OVCAR-5 ovarian
RPMI-8226 leukemia = test system: RPMI-8226 leukemia
M14 melanoma = test system: M14 melanoma
SNB-19 CNS = test system: SNB-19 CNS
NCI/ADR-RES ovarian = test system: NCI/ADR-RES ovarian
NCI-H23 lung = test system: NCI-H23 lung
SNB-75 CNS = test system: SNB-75 CNS
SF-268 CNS = test system: SF-268 CNS
UACC-257 melanoma = test system: UACC-257 melanoma

Row | SMILES | TGI (U251 CNS) [µM] | TGI (OVCAR-5 ovarian) [µM] | TGI (RPMI-8226 leukemia) [µM] | TGI (M14 melanoma) [µM] | TGI (SNB-19 CNS) [µM] | TGI (NCI/ADR-RES ovarian) [µM] | TGI (NCI-H23 lung) [µM] | TGI (SNB-75 CNS) [µM] | TGI (SF-268 CNS) [µM] | TGI (UACC-257 melanoma) [µM]
1 | CON(C)C(=O)C1CCCO1 (stereo not given) | > 100 | > 100 | > 100 | > 100 | > 100 | > 100 | > 100 | > 100 | > 100 | > 100
2 | CC(C)[Si](OC/C(=C/COC(C)(C)C)[C@H]1CC=C(C(=O)c2ccccc2N2CN(C)C(=O)N(C)C2)C1)(C(C)C)C(C)C | 23 | 28.7 | 15.6 | 27 | 24.9 | 32.7 | 30 | 28.7 | 17.3 | 23.9
3 | CCNc1ncnc2sc(SCc3ccccc3)nc12 | > 100 | > 100 | > 100 | > 100 | > 100 | > 100 | > 100 | > 100 | > 100 | > 100
4 | C(=C\c1ccccc1)/COc1ccccc1C(N1CCOCC1)n1nc2ccccc2n1 (stereo not given) | 17.6 | 44.9 | 12.2 | 13.5 | > 63.1 | 22.6 | 24.6 | 16.9 | 28.5 | 25.5
5 | Cc1cc(NS(=O)(=O)c2ccc(NC(NC(=O)C(C(F)(F)F)C(F)(F)F)(C(F)(F)F)C(F)(F)F)cc2)no1 | > 100 | > 100 | > 100 | > 100 | > 100 | > 100 | > 100 | > 100 | > 100 | > 100
6 | O=[N+]([O-])c1cccc2c(N=Nc3ccc4ccccc4c3O)c(O)cc(S(=O)(=O)O)c12 | > 100 | > 100 | > 100 | 51.2 | > 100 | > 100 | > 100 | > 100 | > 100 | > 100
7 | COc1nc2c(N3CCCC3)nc(N3CCNCC3)nc2nc1NCc1ccccc1 | 3.5 | 8.04 | 3.96 | 3.03 | 4.19 | 17.1 | 5.88 | 4.19 | 5 | 3.35
8 | O=C1C(C(O)(C(F)(F)F)C(F)(F)F)CCC1C(O)(C(F)(F)F)C(F)(F)F (stereo not given) | 99.5 | > 100 | 13.5 | 47 | > 100 | 32.6 | 6.75 | 7.61 | > 100 | 34.8
9 | C/C(=N\Nc1nc2ccccc2s1)c1ccc2ccccc2n1 | > 100 | > 100 | 45.3 | > 100 | > 100 | > 100 | > 100 | 97.2 | > 100 | > 100
10 | CC1=NNC(=O)C1C1CC(c2c[nH]c3ccccc23)=NN=C1Cl (stereo not given) | > 100 | > 100 | 81.6 | > 100 | > 100 | > 100 | > 100 | > 100 | > 100 | > 100
11 | CN1CCN(C2=C(Cl)C3(OCCS3)C(F)(F)C2(F)F)CC1 (stereo not given) | > 100 | > 100 | > 100 | > 100 | > 100 | > 100 | > 100 | > 100 | > 100 | > 100
12 | CC(C)N1CN(c2ccccc2)C2(CCN(CCCC(=O)c3ccc(F)cc3)CC2)C1=O | > 100 | 30.9 | 31.1 | 31.1 | > 56 | 31.1 | 28.1 | > 91.6 | > 63.4 | 8.94
13 | CCOC(=O)C1CCC(=O)N1C(=O)c1ccccc1Cl (stereo not given) | > 100 | > 100 | > 100 | > 100 | > 100 | > 100 | > 100 | > 100 | > 100 | > 100
14 | O=[N+]([O-])c1cc(Cl)ccc1Sc1ccccc1 | > 100 | > 100 | > 100 | > 100 | > 100 | > 100 | > 100 | 87 | > 100 | > 100
15 | CCOP(=O)(OCC)OC1CC(n2cc(C)c(=O)n(C)c2=O)OC1CO[Si](C)(C)C(C)(C)C (stereo not given) | > 100 | > 100 | > 100 | > 100 | > 100 | > 100 | > 100 | > 100 | > 100 | > 100
16 | C[C@H]1[C@H](C)CC[C@]2(C(=O)OC3OC(CO)C(O)C(O)C3O)CC[C@]3(C)C(=CC[C@@H]4[C@@]5(C)C[C@H]6OC(=O)c7cc(O)c(O)c(O)c7-c7c(cc(O)c(O)c7O)C(=O)O[C@@H]6C(CO)(CO)[C@@H]5CC[C@]43C)[C@H]12 (stereo not given in full) | 42.2 | > 100 | > 100 | > 100 | > 100 | > 100 | > 100 | > 100 | > 100 | > 100
17 | CN(C)c1ccc(Cc2cc3c(O)ccc(O)c3cc(Cc3ccc(N(C)C)cc3)c2=O)cc1 | 41.4 | > 70 | > 84.9 | 34.2 | > 63.4 | > 81.8 | 53.9 | > 92.2 | > 77.5 | 48.9
18 | COC(=O)C1(O)C(c2ccccc2)=NC2(C)CCCC21 (stereo not given) | > 100 | > 100 | > 100 | > 100 | > 100 | > 100 | > 100 | > 100 | > 100 | > 100
19 | COC(=O)N1N=C(c2ccccc2)C1c1ccccc1 (stereo not given) | > 100 | > 100 | > 100 | > 100 | > 100 | 69.2 | 88 | > 100 | > 100 | 77.4
